Assay results reported in US20130023550A1, “PHARMACEUTICAL COMPOSITIONS AND METHODS OF MAKING SAME” (GLAXO WELLCOME MANUFACTURING PTE, LTD, priority 2010, published 2013).
In brackets after ≈: the same amount, converted by molar mass. Like-named read-outs stand apart in the source and are kept apart here.

What was measured:
Type in all cases: physicochemical
[1] = Solubility of pazopanib as a function of pH in phosphate buffer; settings: for solubility at 5 days: phosphate buffer, 25 °C, thermodynamic from solid
Experimental: • 1) Prep 25 mM phosphate buffer (using monobasic Sodium Phosphate, monohydrate), adjust the buffer solution to different target pH using 1N NaOH/HCl. • 2) Add excessive pazopanib free base to the above solutions (˜20 mg free base per 10 mL buffer solution), vortex the solutions, and mix well. […] Equilibrate the solutions for 5 days with agitation. • 4) After 5 days, measure the pH of the solubility solution immediately, and record the pH, and filter the solution into a test tube using a 0.22um PVDF filter. • 5) Dilute the solution by 1:1 (v/v) with 50:50:0.1 water:acetonitrile:TFA (v/v/v) diluent, and mix well. • 6) The solubility of the solutions is analyzed by HPLC at the detection wavelength of 268 nm.
Mobile Phase A: 100:0.1 (v/v) Water:TFA Mobile Phase B: 100:0.1 (v/v) Acetonitrile:TFA Column: Phenomenex Develosil RPAqueous-3, C-30, 3 um, 150 mm×4.6 mm Column temperature: 35° C. Flow rate: Isocratic at 1.0 mL/min, A/B=60/40 Detector wavelength: 268 nm Injection volume: 10 μ L Total run time: 4 minutes

[2] = Calculation of cyclodextrin utility number UCD; settings: for K: conservative value used for UCD calculations
From the text: The cyclodextrin utility number, UCD, is a dimensionless number used to assess the feasibility of using cyclodextrin in dosage forms. UCD is a lumped parameter consisting of the dose of the drug, the workable amount of CD, the binding constant, and the drug solubility in the absence of CDs. UCD can be used to predict the solubility of ionizable drugs showing a synergistic increase in solubility due to ionization and complexation. See, Rao, V. M., Stella, V. J., J Pharm Sci, 92, 5 927, May 2003. UCD is calculated using the following equation:
UCD=(KSo/1+KSo)(MCD/MD)(MWD/MWCD)
where, mD is dose of drug; mCD is dose of cyclodextrin; MWD is molecular weight drug; MWCD is molecular weight cyclodextrin; and Ko is binding constant.
UCD=(KSo/1+KSo)(mCD/mD)(MWD/MWCD)
Binding constant, K, as described in Example 4 above.
Solubility, So, as described in Example 5 above. from Rao, V. M., Stella, V. J., J Pharm Sci, 92, 5 927, May 2003.

[3] = Binding constant Kb by fluorescence titration
From the text: The binding constant between a drug substance and complexing agent can be determined using spectroscopic techniques as outlined by Connors and references therein (Kenneth A. Connors: “Binding Constants”, Wiley-Interscience; 1. edition (April 1987)).
The simplified equilibrium for complexation between pazopanib (034 in Equation 1 shown below) drug substance and13-cyclodextrin sulfobutylether (e.g., Captisol® from Cydex Pharmaceuticals, Inc., Lenexa, Kans.) has been shown as Equation 1, where Kd is the dissociation constant and Kb is the binding constant, 034(s) is solid precipitate for pazopanib, 034(aq) is the aqueous concentration of unbound pazopanib (free state without complexation), Captisol(aq) is the difference between the initial Captisol concentration and the concentration of Captisol in the complexed state with drug substance and pazopanib. […] is the concentration of the complex between pazopanib and 034·Captisol (complexed state).
A titration experiment is performed using pazopanib (approximately 0.05 mg/ml, 10^-4M) solution by varying the concentration of β-cyclodextrin sulfobutylether solution and measuring the fluorescence intensity (excitation at 342 nm, emission at 375 nm) of the resulting solutions. Initial Captisol concentration are chosen to describe the entire titration curve appropriately and to prevent nucleation and precipitation of pazopanib in the solution. […]
The measured Fluorescence intensity is directly related to the concentration of the complexed state 034·Captisol(aq) since uncomplexed pazopanib 034(aq) and Captisol Captisol(aq) have negligible fluorescence yield. The measured fluorescence intensities are fitted using a non-linear simplex fitting routine to determine the value of the binding constant Kb. The Fluorescence intensities are plotted as a function of β-cyclodextrin sulfobutylether concentration according to Benesi and Hildebrandt to determine the binding stoichiometry. […]
Varian Cary Eclipse Fluorescence spectrometer (SN: EL05043801) with a lcm cuvette and orthogonal detection geometry or equivalent. […]

[4] = Osmolality contribution of Captisol

Cc1ccc(Nc2nccc(N(C)c3ccc4c(C)n(C)nc4c3)n2)cc1S(N)(=O)=O [pazopanib]
So ([1]; pH 3.5): 4.57e-05 mol/L | solubility in phosphate buffer ([1]; pH 3.5, 25° C.): ~20 µg/mL (≈ 45.7 µM) | So ([1]; pH 4.0): 2.38e-06 mol/L | solubility in phosphate buffer ([1]; pH 4.0, 25° C.): ~1.043 µg/mL (≈ 2.38 µM) | solubility in phosphate buffer (molar value) ([1]; pH 4.0, 25° C.): ~2.38×10^−6 | solubility in phosphate buffer ([1]; pH 4.25, 25° C.): ~0.534 µg/mL (≈ 1.22 µM) | solubility, So ([1]; pH 4.25, 25° C.): ~1.22 µM (≈ 0.534 µg/mL) | solubility in phosphate buffer ([1]; pH 4.5, 25° C.): ~0.025 µg/mL (≈ 0.0571 µM) | solubility, So ([1]; pH 4.5, 25° C.): ~0.0571 µM (≈ 0.025 µg/mL) | solubility, So ([1]; pH 5.0, 25° C.): 0.0137 µM (≈ 0.00599 µg/mL) | solubility at 5 days ([1]; pH 3.5, aqueous buffer, pH 3.5, 25° C., read-out: solubility in phosphate buffer): 20 µg/mL | solubility at 5 days ([1]; pH 3.5, aqueous buffer, pH 3.5, 25° C., read-out: solubility in phosphate buffer (molar value)): 45.7 µM | solubility at 5 days ([1]; pH 4, aqueous buffer, pH 4.0, 25° C., read-out: solubility in phosphate buffer): 1.04 µg/mL | solubility at 5 days ([1]; pH 4, aqueous buffer, pH 4.0, 25° C., read-out: solubility in phosphate buffer (molar value)): 2.38 µM | solubility at 5 days ([1]; pH 4.25, aqueous buffer, pH 4.25, 25° C., read-out: solubility in phosphate buffer): 0.534 µg/mL | solubility at 5 days ([1]; pH 4.25, aqueous buffer, pH 4.25, 25° C., read-out: solubility, So): 1.22 µM | solubility at 5 days ([1]; pH 4.5, aqueous buffer, pH 4.5, 25° C., read-out: solubility in phosphate buffer): 0.025 µg/mL | solubility at 5 days ([1]; pH 4.5, aqueous buffer, pH 4.5, 25° C., read-out: solubility, So): 0.0571 µM | (KSo)/(1 + KSo) ([2]; pH 3.5): 0.314 | K ([2]; pH 3.5): 10000 L/mol | (KSo)/(1 + KSo) ([2]; pH 4.0): 0.023 | K ([2]; pH 4.0): 10000 L/mol | (KSo)/(1 + KSo) ([2]; pH 4.25): 0.012 | K ([2]; pH 4.25): 10000 L/mol | (KSo)/(1 + KSo) ([2]; pH 4.5): 0.0006 | K ([2]; pH 4.5): 10000 L/mol | (KSo)/(1 + KSo) ([2]; pH 5.0): 0.0001 | K ([2]; pH 5.0): 10000 L/mol | binding constant, Kb ([3]; pH of 4, temperature of 40° C.): 9763 mol⁻¹ | binding constant, Kb ([3]; pH of 5, temperature of 25° C.): 9130 mol⁻¹ | binding constant of pazopanib, K ([3]; with modified cyclodextrin such as Captisol): approximately 10,000

β-cyclodextrin sulfobutylether [Captisol]
Osmolality (mOsm) ([4]; Captisol 2 % (w/v)): 20 mOsm | Osmolality (mOsm) ([4]; Captisol 3 % (w/v)): 50 mOsm | Osmolality (mOsm) ([4]; Captisol 4 % (w/v)): 80 mOsm | Osmolality (mOsm) ([4]; Captisol 5 % (w/v)): 110 mOsm | Osmolality (mOsm) ([4]; Captisol 6 % (w/v)): 140 mOsm | Osmolality (mOsm) ([4]; Captisol 7 % (w/v)): 170 mOsm | Osmolality (mOsm) ([4]; Captisol 8 % (w/v)): 201 mOsm | Osmolality (mOsm) ([4]; Captisol 9 % (w/v)): 231 mOsm | Osmolality (mOsm) ([4]; Captisol 10 % (w/v)): 261 mOsm | Osmolality (mOsm) ([4]; Captisol 11 % (w/v)): 291 mOsm | Osmolality (mOsm) ([4]; Captisol 12 % (w/v)): 321 mOsm | Osmolality (mOsm) ([4]; Captisol 13 % (w/v)): 351 mOsm
